The values below come from patent CN109762015A, “一种阿维菌素B2a磷酸化修饰物及其制备方法和应用” (HEBEI MEIHE PHARMACEUTICAL Co Ltd, priority 2019, dated 2019).

Molecules are shown by their SMILES.

For data set [1], the system named is root-knot nematode of watermelon (西瓜根结线虫). The experiment in a line: Field trial: control of watermelon root-knot nematode (Example 7). In kind it is in vivo. The following applies: 0.25 g/plant, hole application at transplanting; assessed 2 d before harvest, five-point sampling, 10 plants per field.
Data set [2] relates to other diseases and pests and non-target organisms (其他病虫害及非靶标生物). The data set can be described thus: Safety evaluation: effect on other diseases/pests and non-target organisms (Example 7). The following applies: 0.25 g/plant, hole application at transplanting. In kind it is in vivo.
A further data set has as its system watermelon (西瓜). The data set can be described thus: Watermelon yield after treatment (Example 8). Format: in vivo. The note with it: 0.25 g/plant at transplanting.
The test system of another data set is plants (植株). The note with it: background statement; cited from earlier work.

`CC[C@H](C)[C@H]1O[C@@]2(C[C@@H]3C[C@@H](C/C=C(\C)[C@@H](O[C@H]4C[C@H](OC)[C@@H](O[C@H]5C[C@H](OC)[C@@H](O)[C@H](C)O5)[C@H](C)O4)[C@@H](C)/C=C/C=C4\CO[C@@H]5[C@H](O)C(C)=C[C@@H](C(=O)O3)[C@]45O)O2)C[C@H](O)[C@@H]1C` [阿维菌素B2a] returned a control effect in data set [1] of 83.32%. Further, the “effect on other diseases/pests and non-target organisms” value in data set [2] is “无不良影响”. In the data set with watermelon (西瓜) (3 watermelons per field, blank field 5.98), this molecule registered a single fruit weight of 7.01 kg. The molecule further had a converted yield in the data set on watermelon (西瓜) (converted from weighing 3 watermelons per field, blank field 38967.4) of 47784.9 kg·hm-2. The “growth rate relative to blank field (yield increase)” value in the data set on watermelon (西瓜) (versus blank field) amounted to 22.62%. In addition, in the data set on plants (植株), the “phytotoxicity in individual plants” value was “会使个别植株出现黄化、烧根等现象”.
